Reference: patent US4289883A, “Carbostyril compounds” (Otsuka Pharmaceutical Co., Ltd., priority 1976, dated 1981)
Read-outs that look alike come from different tables or passages of the source.

Assays:
[1] = acute toxicity (LD50), i.v. and p.o.; design: species or system rats; conditions: rat, in vivo
Protocol: Further, the acute toxicity of the compounds of the present invention having the formula (I) was determined by intravenous administration (i.v.) and oral administration (p.o.) in 5 to 6 group of rats (dd, strain; body weight, 18 to 22 g; 10 rats in each group) which have been fasted for 12 hours prior to the test.

β-adrenoreceptor = assay: β-adrenergic blocking activity in anesthetized dogs (antagonism to isoprenaline effects on heart rate, diastolic blood pressure and air-way resistance); type: in vivo; conditions: 10 minutes after i.v. test compound 300 μg/kg; for Inhibition (%) dBP (Diastolic Blood Pressure): antagonism to isoprenaline (1 μg/kg i.v.) induced depression of diastolic blood pressure; for Inhibition (%) dBP (Diastolic Blood Pressure) / Inhibition (%) AR (AirWay Resistance): dogs; for Inhibition (%) HR (Heart Rate): antagonism to isoprenaline (1 μg/kg i.v.) induced increase in heart rate, male hybrid adult dogs; for Inhibition (%) AR (AirWay Resistance): antagonism to isoprenaline depression of histamine (5 μg/kg i.v.) induced increase of air-way resistance
Protocol: The β-adrenergic blocking activity of the compounds of this invention was determined as follows:
Male hybrid adult dogs, weighing 10 to 16 kg, were anesthesized with sodium pentobarbital administered intravenously at a level of 30 mg/kg of body weight, and a cannula was inserted into the trachea of each of the anesthesized dogs. In order to avoid blood coagulation, heparin was administered intravenously at a level of 1000 units and thereafter a cannula was inserted into the right femoral artery. The experiments were conducted under artificial respiration at a rate of 20 ml/kg, 18 r.p.m.
The above parameters were continuously recorded on a polygraph (8S 28 Type, tradename of Sanei Sokki Co., Japan). During the experiment, gallamine was administered intravenously at a dosage of 3 mg/kg at one-hour intervals to avoid fluctuation of air-way resistance.
The β-adrenergic blocking activity of each of the test compounds was evaluated in terms of antagonism (Inhibition %) to the depression at the diastolic blood pressure (dBP) and to the increase in the heart rate induced by the intravenous administration of isoprenaline (1 μg/kg) and in terms of antagonism (Inhibition %) to the depression by isoprenaline in increase of air-way resistance which was induced by intravenous administration of histamine (5 μg/kg). In this case, histamine was administered 45 seconds after the administration of isoprenaline.

| SMILES | LD50 ([1]; iv, Rats (Female), read-out: LD50 (50% lethal dose) i.v.) [mg/kg] | LD50 ([1]; iv, Rats (Male), read-out: LD50 (50% lethal dose) i.v.) [mg/kg] | LD50 ([1]; po, Rats (Female), read-out: LD50 (50% lethal dose) p.o.) [mg/kg] | LD50 ([1]; po, Rats (Male), read-out: LD50 (50% lethal dose) p.o.) [mg/kg] | Inhibition (%) dBP (Diastolic Blood Pressure) (β-adrenoreceptor) [%] | Inhibition (%) HR (Heart Rate) (β-adrenoreceptor) [%] | Inhibition (%) AR (AirWay Resistance) (β-adrenoreceptor) [%] |
| --- | --- | --- | --- | --- | --- | --- | --- |
| COCCOc1ccc(OCC(O)CNCCc2ccc(OC)c(OC)c2)c2c1NC(=O)CC2.O=C(O)/C=C\C(=O)O (stereo not drawn) [8-(2-methoxyethoxy)-5-[3-(3,4-dimethoxyphenethylamino)-2-hydroxypropoxy]-3,4-dihydrocarbostyril maleate] | 160 | 185 | 1450 | 1550 | – | – | – |
| CC(C)NCC(O)COc1ccc(CC(N)=O)cc1 (stereo not drawn) [Atenolol, reference compound] | – | – | – | – | 26.9 | 52.3 | 9.8 |
| CC(C)(C)NCC(O)COc1cccc2c1CCC(=O)N2 (stereo not drawn) [Comparison Compound 1, reference compound] | – | – | – | – | 100 | 100 | 100 |
| COc1ccc(CCNCC(O)COc2cccc3c2CCC(=O)N3)cc1OC (stereo not drawn) [Comparison Compound 2, reference compound] | – | – | – | – | 65.6 | 87.2 | 79.1 |
| CC(C)(C)NCC(O)COc1ccc(O)c2c1CCC(=O)N2 (stereo not drawn) [Prior Art Compound 1, reference compound] | – | – | – | – | 100 | 100 | 100 |
| COc1ccc(OCC(O)CNC(C)(C)C)c2c1NC(=O)CC2 (stereo not drawn) [Prior Art Compound 2, reference compound] | – | – | – | – | 83.7 | 82.1 | 80.2 |
| CC(C)(C)NCC(O)COc1ccc(OCc2ccccc2)c2c1CCC(=O)N2 (stereo not drawn) [Prior Art Compound 3, reference compound] | – | – | – | – | 10.2 | 71.3 | 67.8 |
| COCCOc1ccc(OCC(O)CNCCc2ccc(OC)c(OC)c2)c2c1NC(=O)CC2 (stereo not drawn) [Sample 1] | – | – | – | – | 28.3 | 45.5 | 25.0 |
| C=CCOc1ccc(OCC(O)CNCCc2ccc(OC)c(OC)c2)c2c1NC(=O)CC2 (stereo not drawn) [Sample 2] | – | – | – | – | 23.5 | 50.2 | 24.5 |
| C#CCOc1ccc(OCC(O)CNCCc2ccc(OC)c(OC)c2)c2c1NC(=O)CC2 (stereo not drawn) [Sample 3] | – | – | – | – | 39.5 | 57.6 | 14.0 |
| COc1ccc(CCNCC(O)COc2ccc(OCC(C)=O)c3c2CCC(=O)N3)cc1OC (stereo not drawn) [Sample 4] | – | – | – | – | 15.1 | 44.6 | 2.7 |
| C#CCOc1ccc(OCC(O)CNCC=C)c2c1NC(=O)CC2 (stereo not drawn) [Sample 5] | – | – | – | – | 35.0 | 50.5 | 24.3 |
| C#CCOc1ccc(OCC(O)CNC(C)(C)C)c2c1NC(=O)CC2 (stereo not drawn) [Sample 6] | – | – | – | – | 94.5 | 100 | 47.6 |
| C#CCOc1ccc(OCC(O)CNC(c2ccccc2)c2ccccc2)c2c1NC(=O)CC2 (stereo not drawn) [Sample 7] | – | – | – | – | 20.5 | 18.4 | 8.0 |
| COc1ccc(CCNCC(O)COc2ccc(OCCO)c3c2CCC(=O)N3)cc1OC (stereo not drawn) [Sample 8] | – | – | – | – | 16.8 | 26.3 | 8.1 |
| C#CCOc1ccc(OCC(O)CNC(C)(C)Cc2ccccc2)c2c1NC(=O)CC2 (stereo not drawn) [Sample 9] | – | – | – | – | 75.7 | 61.7 | 41.3 |
| C=CCOc1ccc(OCC(O)CNCC(c2ccccc2)c2ccccc2)c2c1NC(=O)CC2 (stereo not drawn) [Sample 10] | – | – | – | – | 20.4 | 25.8 | 3.5 |
| COc1ccc(CCNCC(O)COc2ccc(OCC(=O)O)c3c2CCC(=O)N3)cc1OC (stereo not drawn) [Sample 11] | – | – | – | – | 47.1 | 50.0 | 9.4 |
| COc1ccc(CCNCC(O)COc2ccc(OCC(N)=O)c3c2CCC(=O)N3)cc1OC (stereo not drawn) [Sample 12] | – | – | – | – | 44.2 | 57.9 | 15.2 |
| CC(=O)Oc1ccc(OCC(O)CNC(C)(C)C)c2c1N(Cc1ccccc1)C(=O)CC2 (stereo not drawn) [Sample 13] | – | – | – | – | 77.5 | 85.2 | 59.3 |
| CC(C)NCC(O)COc1ccc(OC(=O)C2CCCCC2)c2c1CCC(=O)N2 (stereo not drawn) [Sample 14] | – | – | – | – | 36.3 | 43.2 | 27.6 |
| CCOC(=O)COc1ccc(OCC(O)CNCCc2ccc(OC)c(OC)c2)c2c1NC(=O)CC2 (stereo not drawn) [Sample 15] | – | – | – | – | 8.5 | 10.2 | 2.7 |
| C#CCOc1ccc(OCC(O)CNCCc2ccc(OC)c(OC)c2)c2ccc(=O)[nH]c12 (stereo not drawn) [Sample 16] | – | – | – | – | 40.9 | 55.3 | 13.7 |
| COCCOc1ccc(OCC(O)CNC(C)C)c2c1NC(=O)CC2 (stereo not drawn) [Sample 17] | – | – | – | – | 34.1 | 41.8 | 9.7 |
| C=CCOc1ccc(OCC(O)CNC(C)(C)C)c2c1NC(=O)CC2.Cl (stereo not drawn) [Sample 18, 8-allyloxy-5-(3-t-butylamino-2-hydroxypropoxy)-3,4-dihydrocarbostyril hydrochloride] | – | – | – | – | 100 | 34.6 | 0 |
| COc1ccc(CCNCC(O)COc2ccc(OCC(=O)O)c3c2CCC(=O)N3)cc1OC (stereo not drawn) [Sample 19] | – | – | – | – | – | 50.0 | 9.4 |
| COCCOc1ccc(OCC(O)CNCCOc2ccc(OC)cc2)c2c1NC(=O)CC2 (stereo not drawn) [Sample 20] | – | – | – | – | 18.1 | 23.7 | 8.3 |
| C#CCOc1ccc(OCC(O)CNC2CCCCC2)c2c1NC(=O)CC2 (stereo not drawn) [Sample 21] | – | – | – | – | 22.0 | 17.3 | 8.3 |
